# “Also recorded” adds a separate entry of the source.
# What was measured:
# Type in all cases: cell-based
# A549 cells = assay: Colony survival assay, A549 cells; conditions: for survival rate, combined treatment: A549, 5 μM cisplatin + 50 μM compound; for toxicity / cell viability, compound alone: A549, 50 μM compound alone; for sensitization effect to cisplatin: A549, cisplatin + 50 μM compound; for cell survival with cisplatin plus inhibitor: A549, varying cisplatin, 48 hours
# Protocol: (§1) H1975 cells were plated in 24-well plates at 50,000 cells/well (for 50 µM inhibitor treatment) or 20,000 cells/well (for […] inhibitor treatment). U2OS and A549 cells were plated in 24-well plates at 5000 cells/well. The next day, cells were treated with varying concentrations of cisplatin, either with or without added inhibitor compound. After 48 hours of cisplatin+compound treatment, the cells were washed 3 times with PBS×1 and fresh media applied. After 4 days of recovery, the cells were stained with methylene blue and imaged using a Nikon SMZ25 stereomicroscope. The images were analyzed using the ImageJ (National Institutes of Health) area measurement tool to quantify total colony size in each well.
# (§2) Cells were plated in 24-well plates at 50,000 cells/well (H1975 line) or 10,000 cells/well (A549 line). The next day, cells were treated with varying concentrations of cisplatin ([…]), with or without 50 μM compound. For the untreated control wells containing only cisplatin, DMSO was applied in place of the compound. After 48 hours of cisplatin+compound treatment, the cells were washed 3 times with PBS and fresh media was applied. After 4 days of recovery, the cells were stained with methylene blue and imaged using a Nikon SMZ25 stereomicroscope. The images were analyzed using the ImageJ (National Institutes of Health) area measurement tool to quantify total colony size in each well.
# (§3) In order to assess the ability of the selected compounds to sensitize cells during cisplatin treatment, the inventors established a colony survival assay comparing the viability of cells treated with cisplatin alone or with combined treatment of cisplatin and 50 μM compound. For the compound screen, we used two lung cancer cell lines: human non-small lung carcinoma H1975 cells, and epithelial lung adenocarcinoma A549 cells. Out of ten compounds tested, compounds c #2 and c #3 were identified with the most significant sensitization effect and were chosen for future characterization. […] Survival rate was reduced from 90% in 5 μM cisplatin treatment to 50% survival in the combined treatment (FIGS. 11A-B). H1975 cells presented similar behavior following doxorubicin treatment (FIG. 11C). IC50 was calculated using linear regression, presenting a clear reduction of cisplatin's IC50 in all treatments.
# H1975 cells = assay: Colony survival assay, H1975 cells; conditions: for survival rate, combined treatment: H1975, 5 μM cisplatin + 50 μM compound; for toxicity / cell viability, compound alone: H1975, 50 μM compound alone; for sensitization effect to cisplatin: H1975, cisplatin + 50 μM compound; for sensitization to doxorubicin: H1975, doxorubicin + 50 μM compound, 48 h; for cell survival with cisplatin plus inhibitor: H1975, varying cisplatin, 48 hours
# Protocol: as §1, §2, §3
# U2OS cells = assay: Colony survival assay, U2OS cells; conditions: varying cisplatin, 48 hours
# Protocol: as §1
# MAD2L2 = MAD2L2 (Homo sapiens, UniProt Q9UI95); assay: Cellular thermal shift assay (CETSA) in 293T cells; conditions: 50 μM, 1 hour
# Protocol: The in vivo binding of MAD2L2 to the small molecule compounds was detected using the cellular thermal shift assay (CETSA), following their standard protocol. Briefly, 293T cells were grown to confluency and treated for 1 hour with the DMSO or selected compounds at 50 µM. Cells were collected and centrifuged for 3 min at 300 g, washed once with PBS, and each pellet was resuspended in 1 ml of PBS supplemented with Merck® 1000×protease inhibitor (539134). The cell suspensions were aliquoted and incubated for 3 min in the VWR XT96 thermal cycler using a gradient from 40°−55° C. Following heating, the tubes were incubated at room temperature for 3 min and then snap frozen in liquid nitrogen. The samples were then lysed via two subsequent freeze-thaw cycles with vortexing, and the lysates were centrifuged at 20,000 g for 20 min at 4° C. Finally, the cleared lysates were boiled in Laemmli buffer for 5 minutes.
# In order to validate that MAD2L2 is a direct target of c #2 and c #3, the inventors tested the compounds' binding kinetics to a recombinant protein by Field Effect Biosensing (FEB) technology. Briefly, purified GST-MAD2L2 was immobilized onto a […] chip, and the current across the chip is measured to determine the baseline current. Then, a soluble compound was flowed over the chip. Interaction of the soluble and immobilized molecules yields a detectable change in conductance of the biosensor. The Kon and Koff of the interaction were measured over time and were used to calculate the KD. The binding of both c #2 and c #3 to MAD2L2 is in the micromolar range: 31.08 μM and 44.88 μM, respectively (FIG. 13A). […] The in vivo binding of c #2 or c #3 to MAD2L2 was validated by using a cellular thermal shift assay (CETSA), which is a reliable reporter showing whether a molecule enters the cell and the nucleus and binds to the protein of interest. Briefly, under normal conditions, most of the MAD2L2 protein unfolds, aggregates and disappears from the soluble fraction of the lysate between 46° C. and 49° C. […]
# Chain of MAD2L2 (Q9UI95 whole entry): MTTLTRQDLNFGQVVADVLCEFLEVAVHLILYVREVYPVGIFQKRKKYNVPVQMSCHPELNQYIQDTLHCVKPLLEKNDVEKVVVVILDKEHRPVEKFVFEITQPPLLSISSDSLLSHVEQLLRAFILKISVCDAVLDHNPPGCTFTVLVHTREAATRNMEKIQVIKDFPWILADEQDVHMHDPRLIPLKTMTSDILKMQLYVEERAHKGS
SMILES,"survival rate, combined treatment (A549 cells)","toxicity / cell viability, compound alone (A549 cells)","toxicity / cell viability, compound alone (A549 cells; listed as c #3)",sensitization effect to cisplatin (A549 cells),cell survival with cisplatin plus inhibitor (A549 cells),"survival rate, combined treatment (H1975 cells)","toxicity / cell viability, compound alone (H1975 cells)","toxicity / cell viability, compound alone (H1975 cells; listed as c #3)",sensitization effect to cisplatin (H1975 cells),sensitization to doxorubicin (H1975 cells),cell survival with cisplatin plus inhibitor (H1975 cells),cell survival with cisplatin plus inhibitor (U2OS cells),stabilization of folded MAD2L2 (in words) (MAD2L2; listed as c #3),"toxicity / cell viability, compound alone (A549 cells; listed as c #2)","toxicity / cell viability, compound alone (H1975 cells; listed as c #2)",stabilization of folded MAD2L2 (in words) (MAD2L2),MAD2L2 aggregation temperature (MAD2L2; normal conditions between 46° C. and 49° C.)
Cc1oc(-c2ccco2)nc1CC(=O)N[C@@H](C(=O)O)c1ccccc1 [Compound 3],50%,no reduction in cell viability,caused no toxicity,approximately twofold sensitization effect,reduction in cell survival,50%,no reduction in cell viability,caused no toxicity,approximately twofold sensitization effect,sensitized,reduction in cell survival,reduction in cell survival,stabilize the folded MAD2L2 protein; also recorded: stronger binding affinity to MAD2L2 than c #2,–,–,–,–
CNc1nc(N2CCCCC2)nc(-n2cnc(SCC(N)=O)n2)n1 [Compound 2],50%,no reduction in cell viability,–,approximately twofold sensitization effect,reduction in cell survival,50%,no reduction in cell viability,–,approximately twofold sensitization effect,sensitized,reduction in cell survival,reduction in cell survival,–,caused no toxicity,caused no toxicity,stabilize the folded MAD2L2 protein,milder change in MAD2L2's aggregation temperature

# — US20250255876A1, “COMPOSITIONS AND METHODS FOR CANCER TREATMENT” (ARIEL SCIENTIFIC INNOVATIONS LTD., priority 2021, published 2025)
